Like-named read-outs stand apart in the source and are kept apart here.
Columns and labels:
KRAS G12V = KRAS G12V (Homo sapiens (Human), UniProt P01116, G12V); assay: KRAS G12V degradation in SW620 cells (Western blot, DC50); type: cell-based; conditions: 24 hours
How it was run: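 SW620 cells (homozygous KRAS G12V) were treated with compound for 24 hours at 37° C. KRAS in lysates was measured by Western blot with fluorescent secondary antibodies and expressed relative to DMSO vehicle (100%). DC50 came from a four-parameter variable-slope dose-response fit.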

[1] = Pharmacokinetics following single intravenous and oral gavage dosing (AUC0-24h); type: in vivo; conditions: mouse, plasma, male CD-1 mice
Description: Compounds disclosed herein were studied for animal tolerability and pharmacokinetics following single intravenous (iv) and oral gavage (po) dosing to male CD-1 mice. For each compound in each dosing route, 3 mice were used with iv dosing volume of 5 mL/kg and po dosing volume of 10 mL/kg. The compounds were formulated in 10% DMSO, 30% PEG400, 60% aqueous solution containing 20% 2-hydroxypropyl-β-cyclodextrin. Blood sampling time points for iv dosing were 0.083, 0.25, 0.5, 1, 2, 4, 8 and 24 h. The sampling time points for po dosing were 0.25, 0.5, 1, 2, 4, 6, 8 and 24 h. Mice activities were monitored and recorded immediately following the dosing. The prepared plasma samples were analyzed using LC/MS/MS on AB Sciex Triple Quad 5500+ system. The PK parameters were determined by non-compartmental analysis using WinNonlin (Version 8.0).

SW620 cells = assay: 3D cell growth inhibition of SW620 cells carrying endogenous KRAS G12V mutation (CellTiter-Glo 3D, GI50); type: cell-based; conditions: Homo sapiens, SW-620, 144 h, read-out: SW620 3D cell growth GI50
How it was run: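 SW620 cells (endogenous KRAS G12V) grown in 3D were dosed next day with compound from DMSO stocks at various concentrations, then incubated 6 days at 37° C.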

KRAS-G12V/RAF1 = KRAS-G12V/RAF1 (Homo sapiens (Human), UniProt P01116, G12V); assay: KRAS/RAF1 binding inhibition assay (AlphaScreen)
How it was run: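 Binding of GppNHp-loaded KRAS G12V to the RAF1 RBD was measured by AlphaScreen with test compound present in 2% DMSO (final), 60 min incubation at 4° C. Signals were converted to % inhibition versus DMSO, and IC50 was obtained by variable-slope nonlinear regression.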

Sequence of KRAS-G12V/RAF1 (P01116-2 other isoform, or with tags, fused parts or gaps G12V): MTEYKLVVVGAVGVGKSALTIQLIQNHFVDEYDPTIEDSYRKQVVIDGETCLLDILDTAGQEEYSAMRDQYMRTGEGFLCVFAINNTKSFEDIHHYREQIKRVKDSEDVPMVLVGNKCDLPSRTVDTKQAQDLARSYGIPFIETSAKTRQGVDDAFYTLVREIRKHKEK
Sequence of KRAS G12V (P01116-2 other isoform, or with tags, fused parts or gaps G12V): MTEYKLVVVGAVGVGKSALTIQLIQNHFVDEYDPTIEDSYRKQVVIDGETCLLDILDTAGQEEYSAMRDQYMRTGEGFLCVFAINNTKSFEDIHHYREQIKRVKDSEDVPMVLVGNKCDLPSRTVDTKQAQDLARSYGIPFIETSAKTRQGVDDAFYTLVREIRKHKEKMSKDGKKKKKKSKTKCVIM

Row | Structure (SMILES) | DC50 (KRAS G12V) [nM] | AUC(0-t) ([1]; single oral dose 15 mg/Kg) [ng·h/mL] | GI50 (SW620 cells; SW620 cells, 6 days) [nM] | IC50 (KRAS-G12V/RAF1) [nM] | AUC(0-t) ([1]; single oral dose 30 mg/Kg) [ng·h/mL] | GI50 (SW620 cells) [nM] | AUC(0-t) ([1]; single oral dose 50 mg/Kg) [ng·h/mL]
1 | CCc1c(F)ccc2cc(O)cc(-c3ncc4c(N5CCC[C@]6(CCO6)C5)nc(OCC5(CN6CCC(CN7CCN(c8cc(F)c(C9CCC(=O)NC9=O)c(F)c8)CC7)CC6)CC5)nc4c3F)c12 (stereo partly drawn) [Compound 216, 3-(4-(4-((1-((1-(((7-(8-ethyl-7-fluoro-3-hydroxynaphthalen-1-yl)-8-fluoro-4-((S)-1-oxa-6-azaspiro[3.5]nonan-6-yl)pyrido[4,3-d]pyrimidin-2-yl)oxy)methyl)cyclopropyl)methyl)piperidin-4-yl)methyl)piperazin-1-yl)-2,6-difluorophenyl)piperidine-2,6-dione] | 1 to 10 | 2140 | < 10 | > 200 | – | – | –
2 | CCc1c(F)ccc2cc(O)cc(-c3ncc4c(N5CCC[C@@](C)(O)C5)nc(OCC5(CN6CCC7(CCC(N8CCN(c9cc(F)c(C%10CCC(=O)NC%10=O)c(F)c9)CC8)CC7)CC6)CC5)nc4c3F)c12 (stereo partly drawn) [Compound 51, 3-{4-[4-(3-{[1-({[7-(8-ethyl-7-fluoro-3-hydroxynaphthalen-1-yl)-8-fluoro-4-[(3R)-3-hydroxy-3-methylpiperidin-1-yl]pyrido[4,3-d]pyrimidin-2-yl]oxy}methyl)cyclopropyl]methyl}-3-azaspiro[5.5]undecan-9-yl)piperazin-1-yl]-2,6-difluorophenyl}piperidine-2,6-dione] | 1 to 10 | – | – | 20 to 200 | 2280 | < 10 | –
3 | CCc1c(F)ccc2cc(O)cc(-c3ncc4c(N5CCC[C@]6(CCO6)C5)nc(OCC5(CN6CCC7(CC6)CC(F)(CN6CCN(c8ccc9c(c8)CN([C@H]8CCC(=O)NC8=O)C9=O)CC6)C7)CC5)nc4c3F)c12 [Compound 214, (S)-3-(5-(4-((7-((1-(((7-(8-ethyl-7-fluoro-3-hydroxynaphthalen-1-yl)-8-fluoro-4-((S)-1-oxa-6-azaspiro[3.5]nonan-6-yl)pyrido[4,3-d]pyrimidin-2-yl)oxy)methyl)cyclopropyl)methyl)-2-fluoro-7-azaspiro[3.5]nonan-2-yl)methyl)piperazin-1-yl)-1-oxoisoindolin-2-yl)piperidine-2,6-dione] | < 1 | – | < 10 | 20 to 200 | 1460 | – | –
4 | CCc1c(F)ccc2cc(O)cc(-c3ncc4c(N5CCC[C@@](C)(O)C5)nc(OCC5(CN6CCC(C)(CN7CCN(c8cc(F)c(C9CCC(=O)NC9=O)c(F)c8)CC7)CC6)CC5)nc4c3F)c12 (stereo partly drawn) [Compound 48, 3-(4-(4-((1-((1-(((7-(8-ethyl-7-fluoro-3-hydroxynaphthalen-1-yl)-8-fluoro-4-((R)-3-hydroxy-3-methylpiperidin-1-yl)pyrido[4,3-d]pyrimidin-2-yl)oxy)methyl)cyclopropyl)methyl)-4-methylpiperidin-4-yl)methyl)piperazin-1-yl)-2,6-difluorophenyl)piperidine-2,6-dione] | 1 to 10 | – | – | 20 to 200 | 17200 | < 10 | –
5 | CCc1c(F)ccc2cc(O)cc(-c3ncc4c(N5CCC[C@@](C)(O)C5)nc(OCC5(CN6CCC(OC7CC8(CCN(c9ccc%10c(c9)CN(C9CCC(=O)NC9=O)C%10=O)CC8)C7)CC6)CC5)nc4c3F)c12 (stereo partly drawn) [Compound 182, 3-[5-[2-[[1-[[1-[[7-(8-ethyl-7-fluoro-3-hydroxy-1-naphthyl)-8-fluoro-4-[(3R)-3-hydroxy-3-methyl-1-piperidyl]pyrido[4,3-d]pyrimidin-2-yl]oxymethyl]cyclopropyl]methyl]-4-piperidyl]oxy]-7-azaspiro[3.5]nonan-7-yl]-1-oxo-isoindolin-2-yl]piperidine-2,6-dione] | < 1 | – | < 10 | 20 to 200 | 4900 | – | –
6 | CCc1c(F)ccc2cc(O)cc(-c3ncc4c(N5CCC[C@@](C)(O)C5)nc(OCC5(CN6CCC(C)(CN7CCN(c8ccc9c(c8)CN([C@H]8CCC(=O)NC8=O)C9=O)CC7)CC6)CC5)nc4c3F)c12 [Compound 12, (S)-3-(5-(4-((1-((1-(((7-(8-ethyl-7-fluoro-3-hydroxynaphthalen-1-yl)-8-fluoro-4-((R)-3-hydroxy-3-methylpiperidin-1-yl)pyrido[4,3-d]pyrimidin-2-yl)oxy)methyl)cyclopropyl)methyl)-4-methylpiperidin-4-yl)methyl)piperazin-1-yl)-1-oxoisoindolin-2-yl)piperidine-2,6-dione] | < 1 | – | < 10 | 20 to 200 | 3250 | – | –
7 | CCc1cccc2cc(O)cc(-c3ncc4c(N5CCC[C@@](C)(O)C5)nc(OCC5(CN6CCC(F)(CN7CC8(CCN(c9ccc%10c(c9)CN(C9CCC(=O)NC9=O)C%10=O)CC8)C7)CC6)CC5)nc4c3F)c12 (stereo partly drawn) [Compound 28, 3-(5-(2-((1-((1-(((7-(8-ethyl-3-hydroxynaphthalen-1-yl)-8-fluoro-4-((R)-3-hydroxy-3-methylpiperidin-1-yl)pyrido[4,3-d]pyrimidin-2-yl)oxy)methyl)cyclopropyl)methyl)-4-fluoropiperidin-4-yl)methyl)-2,7-diazaspiro[3.5]nonan-7-yl)-1-oxoisoindolin-2-yl)piperidine-2,6-dione] | < 1 | – | < 10 | 20 to 200 | 539 | – | –
8 | CCc1c(F)ccc2cc(O)cc(-c3ncc4c(N5CCC[C@@](C)(O)C5)nc(OCC5(CN6CCC7(CC6)CC(N6CCN(c8ccc9c(c8)CN([C@H]8CCC(=O)NC8=O)C9=O)CC6)C7)CC5)nc4c3F)c12 [Compound 121, (S)-3-(5-(4-(7-((1-(((7-(8-ethyl-7-fluoro-3-hydroxynaphthalen-1-yl)-8-fluoro-4-((R)-3-hydroxy-3-methylpiperidin-1-yl)pyrido[4,3-d]pyrimidin-2-yl)oxy)methyl)cyclopropyl)methyl)-7-azaspiro[3.5]nonan-2-yl)piperazin-1-yl)-1-oxoisoindolin-2-yl)piperidine-2,6-dione] | < 1 | – | < 10 | < 20 | – | – | 598
9 | CCc1c(F)ccc2cc(O)cc(-c3ncc4c(N5CCC[C@@](C)(O)C5)nc(OCC5(CN6CCC7(CC6)CC(F)(CN6CCN(c8ccc9c(c8)CN([C@H]8CCC(=O)NC8=O)C9=O)CC6)C7)CC5)nc4c3F)c12 [Compound 134, (S)-3-(5-(4-((7-((1-(((7-(8-ethyl-7-fluoro-3-hydroxynaphthalen-1-yl)-8-fluoro-4-((R)-3-hydroxy-3-methylpiperidin-1-yl)pyrido[4,3-d]pyrimidin-2-yl)oxy)methyl)cyclopropyl)methyl)-2-fluoro-7-azaspiro[3.5]nonan-2-yl)methyl)piperazin-1-yl)-1-oxoisoindolin-2-yl)piperidine-2,6-dione] | < 1 | – | – | 20 to 200 | 982 | < 10 | 1940
10 | CCc1c(F)ccc2cc(O)cc(-c3ncc4c(N5CCC[C@@](C)(O)C5)nc(OCC5(CN6CC(F)(CN7CC8(CCN(c9ccc%10c(c9)CN([C@H]9CCC(=O)NC9=O)C%10=O)CC8)C7)C6)CC5)nc4c3F)c12 [Compound 68, (S)-3-(5-(2-((1-((1-(((7-(8-ethyl-7-fluoro-3-hydroxynaphthalen-1-yl)-8-fluoro-4-((R)-3-hydroxy-3-methylpiperidin-1-yl)pyrido[4,3-d]pyrimidin-2-yl)oxy)methyl)cyclopropyl)methyl)-3-fluoroazetidin-3-yl)methyl)-2,7-diazaspiro[3.5]nonan-7-yl)-1-oxoisoindolin-2-yl)piperidine-2,6-dione] | 1 to 10 | – | < 10 | > 200 | 901 | – | –
11 | CCc1c(F)ccc2cc(O)cc(-c3ncc4c(N5CCC[C@@](C)(O)C5)nc(OCC5(CN6CCC(C)(CN7CCN(C8CCN(c9ccc%10c(c9)CN(C9CCC(=O)NC9=O)C%10=O)CC8)CC7)CC6)CC5)nc4c3F)c12 (stereo partly drawn) [Compound 39, 3-(5-(4-(4-((1-((1-(((7-(8-ethyl-7-fluoro-3-hydroxynaphthalen-1-yl)-8-fluoro-4-((R)-3-hydroxy-3-methylpiperidin-1-yl)pyrido[4,3-d]pyrimidin-2-yl)oxy)methyl)cyclopropyl)methyl)-4-methylpiperidin-4-yl)methyl)piperazin-1-yl)piperidin-1-yl)-1-oxoisoindolin-2-yl)piperidine-2.6-dione] | < 1 | – | < 10 | < 20 | 399 | – | –
12 | CCc1c(F)ccc2cc(O)cc(-c3ncc4c(N5CCC[C@@](C)(O)C5)nc(OCC5(CN6CCC7(CC6)CC(N6CCN(c8cc(F)c(C9CCC(=O)NC9=O)c(F)c8)CC6)C7)CC5)nc4c3F)c12 (stereo partly drawn) [Compound 50, 3-(4-(4-(7-((1-(((7-(8-ethyl-7-fluoro-3-hydroxynaphthalen-1-yl)-8-fluoro-4-((R)-3-hydroxy-3-methylpiperidin-1-yl)pyrido[4,3-d]pyrimidin-2-yl)oxy)methyl)cyclopropyl)methyl)-7-azaspiro[3.5]nonan-2-yl)piperazin-1-yl)-2,6-difluorophenyl)piperidine-2,6-dione] | < 1 | – | < 10 | 20 to 200 | 3900 | – | –

Reference: patent US20250092039A1, “GLUTARIMIDE-CONTAINING PAN-KRAS-MUTANT DEGRADER COMPOUNDS AND USES THEREOF” (Tiger Biotherapeutics Inc., priority 2022, published 2025)
